What was measured:
[1] = Stability in human gastric juice assessed as half life of hydrolysis; format: ADME, tissue-based
[2] = Stability in human serum assessed as half life of hydrolysis; format: ADME, cell-free
[3] = Chemical stability assessed as half life of hydrolysis in phosphate buffer at pH 8.5; format: physicochemical
[4] = Chemical stability assessed as half life of hydrolysis in carbonate buffer at pH 8.5; format: physicochemical
Liver = assay: Metabolic stability in rat liver S9 fraction assessed as esterase conversion rate; format: ADME, subcellular
[5] = Aqueous stability assessed as time to reach 90% of starting dose at pH 3.0 to 7.4; format: physicochemical; settings: buffer
[6] = Oral bioavailability in rat; format: ADME, organism-based; settings: in vivo
[7] = Aqueous stability assessed as time to reach 90% of starting dose at pH 7; format: physicochemical; settings: buffer
[8] = Aqueous stability assessed as time to reach 90% of starting dose at pH 7; settings: buffer
Trypanosoma brucei = assay: Antiparasitic activity against Trypanosoma brucei; format: functional, organism-based
[9] = Chemical stability assessed as half life of hydrolysis at acidic pH; format: physicochemical
[10] = Chemical stability assessed as half life of hydrolysis at neutral pH; format: physicochemical

CC(C)(C)C(=O)SCCOP(=O)(COCCn1cnc2c(N)ncnc21)OCCSC(=O)C(C)(C)C
half-life [1]: < 5 min
half-life [2]: 4 h

O=C(O)CCNC(=O)[C@H](Cc1ccc(-c2ccccc2)cc1)NCP(=O)(Oc1ccccc1)Oc1ccccc1
half-life [3]: > 96 h
half-life [4]: 0.5 h

CC(=O)Oc1ccc(COP(=O)(OCc2ccc(OC(C)=O)cc2)c2ccc(-c3nc(N)sc3CC(C)C)o2)cc1
Stability (Liver): > 300 nmol/min/mg
Stability [5]: < 4 h

CCOC(=O)[C@H](C)NP(=O)(N[C@@H](C)C(=O)OCC)c1ccc(-c2nc(N)sc2CC(C)C)o1
bioavailability [6]: 22%
Stability (Liver): 11 nmol/min/mg
Stability [5]: > 48 h
Stability [7]: > 7 days

CCOC(=O)[C@H](C)NP(=O)(Oc1ccccc1)c1ccc(-c2nc(N)sc2CC(C)C)o1 (stereo partly specified)
Stability (Liver): 55 nmol/min/mg
Stability [8]: 14 h

CC(=O)SCCOP(=O)(OCCSC(C)=O)c1ccc(-c2nc(N)sc2CC(C)C)o1
Stability (Liver): > 300 nmol/min/mg
Stability [8]: 8 h

CCOC(=O)CNP(=O)(NCC(=O)OCC)c1ccc(-c2nc(N)sc2CC(C)C)o1
Stability (Liver): 43 nmol/min/mg
Stability [8]: 36 h

CC(C)Cc1sc(N)nc1-c1ccc(P(=O)(OCOC(=O)C(C)(C)C)OCOC(=O)C(C)(C)C)o1
Stability (Liver): > 300 nmol/min/mg
Stability [8]: < 4 h

CC(C)(C)C(=O)SCCOP(=O)(OCCSC(=O)C(C)(C)C)Oc1ccc(O)c(C(=O)O)c1
IC50 (Trypanosoma brucei): 20 µM

CC(C)(C)C(=O)OCOP(=O)(OCOC(=O)C(C)(C)C)OC[C@H]1O[C@@H](n2cc(F)c(=O)[nH]c2=O)C[C@@H]1O
half-life [9]: > 40 h
half-life [10]: > 40 h

Reference: ChEMBL document CHEMBL1144790, “Prodrugs of phosphates and phosphonates” (J Med Chem, 2008)
